Source: patent publication EP0856015B1, “NEW POLYACRYLAMIDE MATRICES IN ELECTROPHORETIC AND CHROMATOGRAPHIC TECHNIQUES” (RIGHETTI, Pier Giorgio, priority 1995, dated 1997)

Key:
[1] = Partitioning of monomers between water and n-octanol, aqueous phase analysed by CZE; type: physicochemical; conditions: 2 mM monomer, 25°C
Experimental: To that aim, aqueous solutions of these monomers have been subjected to partitioning against n-octanol. After partitioning, the aqueous phase is analyzed by capillary electrophoresis and the molar ratio of the various monomers in the two phases determined. […] Hydrophobicity scale of acrylamide and N-substituted derivatives. Each monomer was dissolved in aqueous solution (3.5 mL) at a concentration of 2 mM and mixed with an equal volume of n-octanol for 2 min. After phase separation, the aqueous solution is centrifuged for 75 min at 2000 rpm. All operations at 25°C. The solution, after dilution, is added with internal standard (2.5 mM of pK 9.3 Immobiline) and analyzed by CZE. For abbreviations see Fig. 1. Other abbreviations: MMA: […] ACM: N-acryloyl morpholine; […]: dideoxy […].

[2] = Hydrolysis kinetics of free monomers under mild alkaline conditions, residual monomer quantified by capillary electrophoresis; conditions: 0.1N NaOH, 70°C

SMILES | hydrophilicity (from partition coefficients P) [1] | degradation kinetics [2] | hydrolysis constant (K) [2] [L/mol/min] | hydrolysis constant, times smaller than that of acrylamide [2] [times] | logP ([1]; read-out: partition coefficient P (converted))
C=CC(=O)NCCCO [AAP] | twice as hydrophilic as acrylamide | first order kinetics | 0.008 | 8 | –
C=CC(=O)NCCCCO [AAB] | close to that of acrylamide | – | – | – | -0.62
C=CC(=O)NC(CO)(CO)CO [Trisacryl, N-acryloyl-2-amino-2-hydroxymethyl-1,3 propandiol, reference compound] | by far the most hydrophilic molecule | zero-order kinetics | – | – | –
C=CC(=O)N1CCOCC1 [N-acryloyl morpholine, reference compound] | – | a more rapid degradation kinetic | – | – | –
